Key:
[1] = biological target: T1, ASIC1 (hASIC1; ASIC1a as primary isoform in tsA-201 cells) (Homo sapiens, UniProt P78348); assay: automated patch clamp, single concentration; assay type: cell-based; settings: tsA201, read-out: % inhibition @ 30 µM
T1 sequence (P78348 1-528): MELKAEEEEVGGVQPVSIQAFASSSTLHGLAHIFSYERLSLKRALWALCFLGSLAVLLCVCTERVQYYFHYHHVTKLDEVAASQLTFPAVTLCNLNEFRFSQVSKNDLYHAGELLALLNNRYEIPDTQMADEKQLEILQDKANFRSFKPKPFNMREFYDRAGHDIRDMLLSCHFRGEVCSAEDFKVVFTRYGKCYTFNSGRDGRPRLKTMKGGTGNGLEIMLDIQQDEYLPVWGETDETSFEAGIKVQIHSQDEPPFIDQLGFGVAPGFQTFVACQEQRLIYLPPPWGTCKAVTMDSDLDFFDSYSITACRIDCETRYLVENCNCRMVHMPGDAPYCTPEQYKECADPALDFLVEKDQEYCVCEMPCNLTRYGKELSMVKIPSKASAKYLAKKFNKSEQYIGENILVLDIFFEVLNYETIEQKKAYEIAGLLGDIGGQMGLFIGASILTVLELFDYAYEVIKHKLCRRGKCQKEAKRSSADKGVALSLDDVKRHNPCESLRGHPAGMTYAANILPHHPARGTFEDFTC

[2] = biological target: T1, ASIC1 (hASIC1; ASIC1a as primary isoform in tsA-201 cells); assay: cell-based; settings: tsA201, read-out: % inhibition @ 30 µM

SMILES | inhibition at 30 µM [1] [%] | inhibition at 30 µM [2] [%]
N=C(N)NC(=O)c1nc(-c2ccco2)c(N)nc1N [compound 14, 14] | 75 ± 1 | –
N=C(N)NC(=O)c1nc(-c2cc3ccccc3o2)c(NCCc2ccccc2)nc1N [compound 66, 66] | – | 31
CCN(c1nc(N)c(C(=O)NC(=N)N)nc1-c1cc2ccccc2o1)C(C)C [compound 62, 62] | – | 46
CC(C)(C)c1ccc2oc(-c3nc(C(=O)NC(=N)N)c(N)nc3N)cc2c1 [compound 21, 21] | 71 ± 2 | –
N=C(N)NC(=O)c1nc(-c2cc3ccccc3o2)c(N2CCCC2)nc1N [compound 59, 59] | – | 59
N=C(N)NC(=O)c1nc(-c2cc3ccccc3o2)c(NCc2ccccc2)nc1N [compound 65, 65] | – | 39
N=C(N)NC(=O)c1nc(-c2cc3cc(F)ccc3o2)c(N)nc1N [compound 23, 23] | 82 ± 1 | –
N=C(N)NC(=O)c1nc(-c2cc3ccccc3o2)c(N2CCCCC2)nc1N [compound 60, 60] | – | 54
N=C(N)NC(=O)c1nc(-c2cc3cc(F)cc(F)c3o2)c(N)nc1N [compound 35, 35] | 76 ± 3 | –
N=C(N)NC(=O)c1nc(-c2cc3ccccc3o2)c(NC2CCCCCC2)nc1N [compound 64, 64] | – | 10
COc1ccc2oc(-c3nc(C(=O)NC(=N)N)c(N)nc3N)cc2c1 [compound 29, 29] | 82 ± 1 | –
N=C(N)NC(=O)c1nc(-c2cc3ccccc3o2)c(NC2CCCC2)nc1N [compound 63, 63] | – | 22
